The source of these data is patent publication US20090291064A1 (priority 2008, published 2009).

Like-named read-outs stand apart in the source and are kept apart here.

One data set can be described thus: in vitro. The following applies: pig, LC50, WST-1 viability.
A further data set deals with CYP1A1. The following applies: pig. The protocol:
(§1) Several CYP450 enzymatic activities were investigated in PICM-19H cells to determine the presence and inducible nature of major CYP450 isoforms. […] Cells were washed with PBS and appropriate inducer medium was added for 48 h prior to experimentation.
(§2) CYP450 activity was assessed in T25 cultures of PICM-19H cells that were grown for 3 wk post-passage. T25 cultures of APH or HepG2 C3A cells were tested after 3 d of primary culture and at 1 wk post-passage or near confluency, respectively. […] After the initial induction, cells were washed and given a non-fluorescent substrate for CYP1A1, CYP1A2, CYP2, or CYP3A (7-ERF, 7-MRF, MFC, and BFC, respectively). […] Medium samples were collected, centrifuged to remove cell debris (14,000×g, 2 min) and frozen at −80° C. until analyzed. […] Briefly, samples were incubated at 37° C. with or without β-glucuronidase/arylsulphatase (15 Fishman/120 Roy units/ml, Roche Applied Sciences) in pH 4.5 acetate buffer for 2 h to release any fluorescent reaction product that had been conjugated via sulfation or glucurondation phase II conjugation reactions. Standard curves contained resorufin or 7-HFC were treated identically to the experimental medium samples. Fluorescence was determined in an HTS 7000 plate reader; excitation/emission filter pairs were 530/590 and 410/510 for resorufin and 7-HFC, respectively. To determine relative conjugation activity, fluorescence was also determined directly without incubating first in β-glucuronidase/arylsulphatase. Since conjugated forms of resorufin and 7-HFC are non-fluorescent, the difference between the direct and indirect fluorescence measurements represents the amount of product which had been modified by conjugating enzymes.

Another data set concerns CYP2. The protocol: as §1, §2
The subject of the next data set is CYP 1A2. The protocol:
as §1, §2

Take `CC(=O)Nc1ccc(O)cc1` [acetaminophen]: in the data set with PICM-19H cells, the “toxicity in glutathione-depleted cells” value was “enhanced”. The cytotoxic concentration (CC50) in the data set on PICM-19H cells (pig) was approximately 13 mM; in “in vitro”, 12.6 ± 0.75 mM.
Regarding `Cc1ccc2cc3c(ccc4ccccc43)c3c2c1CC3` [3-MC, 3-methylcholanthrene], the “induction of BFCD activity” value with CYP3A (PICM-19H cells, 48 h with 5 μM 3-MC) stood at 5.8 fold. The “increase in EROD activity” value with CYP1A1 is 198 fold. Moreover, the “MFCD activity induction (in words)” value with CYP2 (PICM-19H cells, 48 h with 1 mM PHB, 50 μM Rif or 5 μM 3-MC) is given as “equally induced”. For the same molecule, the “induction of MROD activity” value with CYP 1A2 (PICM-19H cells, 48 h with 5 μM 3-MC, vs non-induced) is listed as 5.5 fold.
For `CCC1(c2ccccc2)C(=O)NC(=O)NC1=O` [PHB, phenobarbital], the “increase in BFCD activity compared to non-induced controls” value in the data set with CYP3A (pig) is recorded as “approximately 50%”. In addition, in the data set with CYP1A1, the “increase in EROD activity” value was 7 fold. Besides, in the data set with CYP2, the “MFCD activity induction (in words)” value was “equally induced”. The “MROD activity (in words)” value in the data set with CYP 1A2 was “low”.
